Laboratory results taken from patent publication US12661415B2, “Isoindolinone compounds and imaging agents for imaging Huntingtin protein” (CHDI Foundation, Inc., priority 2021, dated 2026).
Entries after “also recorded” stand apart in the source; their conditions may differ.

Experiments:
mHTT aggregates [1] = test: In situ autoradiography (ARG) binding, human post-mortem brain sections
Text: In situ autoradiography (ARG) was used to investigate the pharmacological binding characteristics of a tritium-labeled Compound 1-6 (“[^3H]-Compound 1-6”) in the HD mouse model 12-month-old HOM zQ175 and human post-mortem brains from healthy and HD gene-expanded carriers (HDGECs); specificity of binding was explored by including samples from Alzheimer's disease (AD) patients, which contain other pathological aggregates (e.g., Abeta-containing plaques and phosphor-Tau-expressing tangles). Saturation binding experiments were performed in coronal brain sections; [^3H]-Compound 1-6 binding was quantified by densitometric analysis and specific binding was determined in cortex (CTX). Affinity (KD) and maximum number of binding sites (Bmax) were determined for each region of interest (ROI).
The non-fixed and non-embedded frozen brains were sectioned by using a cryostat at −18° C. Thereby, serial coronal tissue sections of 20 μm thickness were mounted on superfrost slides and dried at room temperature for approximately 90 minutes. The slides were stored at −80° C. until the different experiments were conducted, but not longer than 3 weeks. A similar procedure was conducted with fresh-frozen human post-mortem brain blocks (healthy subjects {CTRL}, Huntingon's disease {HD}, and Alzheimer's disease {AD}).
The appropriate number of slides containing the respective tissue sections were acclimated to room temperature for 30 minutes. The slides were then pre-incubated by immersion into 40 mL assay buffer for 20 minutes at room temperature. Following this pre-incubation step, one slide per animal was incubated by immersion into 30 mL of the 10 nM, 3 nM, 1 nM, 0.3 nM, 0.1 nM, 0.03 nM, 0.01 nM, or 0.003 nM Compound 1-6 solutions and one slide was incubated by immersion into 30 mL of 10 nM, 3 nM, 1 nM, 0.3 nM, 0.1 nM, 0.03 nM, 0.01 nM, or 0.003 nM [^3H]-Compound 1-6, plus 10 μM unlabeled Compound 1-6 solutions for 60 minutes at room temperature, respectively. A similar paradigm was performed with tritium-labeled Comparative Compound 3 (“[^3H]-Comparative Compound 3”) and tritium-labeled Comparative Compound 4 (“[^3H]-Comparative Compound 4”). Structures of these comparative compounds and compound 1-6 are shown below.
Afterwards, the slides were washed three times for 10 minutes with 200 mL of ice cold washing buffer at 4° C. and dipped for three seconds in ice cold distilled water to remove buffer salts. The slides were dried for three hours at 30° C. and exposed for 96 hours to Fuji BAS-TR 2015 tritium phosphor screens together with the calibrated tritium standards ART 0123C and ART 0123B. Stored radiation energy on the screen was scanned using the phosphorimager Typhoon FLA 7000.
Densitometric data analysis was performed using the MCID Analysis 7.1 software (Interfocus Imaging Ltd.). Within each brain section, regions of interest (ROI) were defined for STR, CTX, and HPC by using appropriate sample tools, and the software calculated density measures from the gray level values of all pixels within a defined ROI (Molecular dynamics counts per unit area, MDC/mm^2). Densitometric calibration related the optical densities to known concentrations of radioactivity from the calibrated tritium standards (fmol/mg tissue) and mean values were calculated for each ROI of the individual brains. Total binding (TB) and non-specific binding (NSB) of the radioligand were quantified, and specific binding (SB) was derived by subtracting NSB from TB (SB=TB−NSB) for each brain and ROI, respectively. Subsequently, the group mean±standard deviation (SD) was calculated for each ROI and experimental condition. The data were fitted to one-site binding equation using non-linear regression method in GraphPad Prism Software.

mHTT aggregates [2] = target: mHTT aggregates (Mus musculus, UniProt P42859); test: In situ autoradiography (ARG) saturation binding, HOM zQ175 HD mouse model brain sections
Text: In situ autoradiography (ARG) was used to investigate the pharmacological binding characteristics of a tritium-labeled Compound 1-6 (“[^3H]-Compound 1-6”) in the HD mouse model 12-month-old HOM zQ175 and human post-mortem brains from healthy and HD gene-expanded carriers ([…]); specificity of binding was explored by including samples from Alzheimer's disease (AD) patients, which contain other pathological aggregates (e.g., Abeta-containing plaques and phosphor-Tau-expressing tangles). Saturation binding experiments were performed in coronal brain sections; [^3H]-Compound 1-6 binding was quantified by densitometric analysis and specific binding was determined in cortex (CTX). Affinity (KD) and maximum number of binding sites (Bmax) were determined for each region of interest (ROI). At the appropriate ages, HD and WT mice of the different strains were sacrificed by cervical dislocation, and the brains, including cerebellum, were dissected and washed in ice cold PBS. Subsequently, the brains were patted dry on paper towels and transferred into a 6-well plate filled with isopentane that was cooled to a temperature between -30° C. and -40° C. The frozen brains were stored at -80° C. until sectioning. The non-fixed and non-embedded frozen brains were sectioned by using a cryostat at -18° C. Thereby, serial coronal tissue sections of 20 μm thickness were mounted on superfrost slides and dried at room temperature for approximately 90 minutes. The slides were stored at -80° C. until the different experiments were conducted, but not longer than 3 weeks. A similar procedure was conducted with fresh-frozen human post-mortem brain blocks (healthy subjects {CTRL}, Huntingon's disease {HD}, and Alzheimer's disease {AD}). The appropriate number of slides containing the respective tissue sections were acclimated to room temperature for 30 minutes. The slides were then pre-incubated by immersion into 40 mL assay buffer for 20 minutes at room temperature. […] Within each brain section, regions of interest (ROI) were defined for STR, CTX, and HPC by using appropriate sample tools, and the software calculated density measures from the gray level values of all pixels within a defined ROI (Molecular dynamics counts per unit area, MDC/mm^2). Densitometric calibration related the optical densities to known concentrations of radioactivity from the calibrated tritium standards (fmol/mg tissue) and mean values were calculated for each ROI of the individual brains. Total binding (TB) and non-specific binding (NSB) of the radioligand were quantified, and specific binding (SB) was derived by subtracting NSB from TB (SB=TB-NSB) for each brain and ROI, respectively. Subsequently, the group mean±standard deviation (SD) was calculated for each ROI and experimental condition. […]

mHTT aggregates (Mus musculus, UniProt P42859), sequence (P42859 whole entry): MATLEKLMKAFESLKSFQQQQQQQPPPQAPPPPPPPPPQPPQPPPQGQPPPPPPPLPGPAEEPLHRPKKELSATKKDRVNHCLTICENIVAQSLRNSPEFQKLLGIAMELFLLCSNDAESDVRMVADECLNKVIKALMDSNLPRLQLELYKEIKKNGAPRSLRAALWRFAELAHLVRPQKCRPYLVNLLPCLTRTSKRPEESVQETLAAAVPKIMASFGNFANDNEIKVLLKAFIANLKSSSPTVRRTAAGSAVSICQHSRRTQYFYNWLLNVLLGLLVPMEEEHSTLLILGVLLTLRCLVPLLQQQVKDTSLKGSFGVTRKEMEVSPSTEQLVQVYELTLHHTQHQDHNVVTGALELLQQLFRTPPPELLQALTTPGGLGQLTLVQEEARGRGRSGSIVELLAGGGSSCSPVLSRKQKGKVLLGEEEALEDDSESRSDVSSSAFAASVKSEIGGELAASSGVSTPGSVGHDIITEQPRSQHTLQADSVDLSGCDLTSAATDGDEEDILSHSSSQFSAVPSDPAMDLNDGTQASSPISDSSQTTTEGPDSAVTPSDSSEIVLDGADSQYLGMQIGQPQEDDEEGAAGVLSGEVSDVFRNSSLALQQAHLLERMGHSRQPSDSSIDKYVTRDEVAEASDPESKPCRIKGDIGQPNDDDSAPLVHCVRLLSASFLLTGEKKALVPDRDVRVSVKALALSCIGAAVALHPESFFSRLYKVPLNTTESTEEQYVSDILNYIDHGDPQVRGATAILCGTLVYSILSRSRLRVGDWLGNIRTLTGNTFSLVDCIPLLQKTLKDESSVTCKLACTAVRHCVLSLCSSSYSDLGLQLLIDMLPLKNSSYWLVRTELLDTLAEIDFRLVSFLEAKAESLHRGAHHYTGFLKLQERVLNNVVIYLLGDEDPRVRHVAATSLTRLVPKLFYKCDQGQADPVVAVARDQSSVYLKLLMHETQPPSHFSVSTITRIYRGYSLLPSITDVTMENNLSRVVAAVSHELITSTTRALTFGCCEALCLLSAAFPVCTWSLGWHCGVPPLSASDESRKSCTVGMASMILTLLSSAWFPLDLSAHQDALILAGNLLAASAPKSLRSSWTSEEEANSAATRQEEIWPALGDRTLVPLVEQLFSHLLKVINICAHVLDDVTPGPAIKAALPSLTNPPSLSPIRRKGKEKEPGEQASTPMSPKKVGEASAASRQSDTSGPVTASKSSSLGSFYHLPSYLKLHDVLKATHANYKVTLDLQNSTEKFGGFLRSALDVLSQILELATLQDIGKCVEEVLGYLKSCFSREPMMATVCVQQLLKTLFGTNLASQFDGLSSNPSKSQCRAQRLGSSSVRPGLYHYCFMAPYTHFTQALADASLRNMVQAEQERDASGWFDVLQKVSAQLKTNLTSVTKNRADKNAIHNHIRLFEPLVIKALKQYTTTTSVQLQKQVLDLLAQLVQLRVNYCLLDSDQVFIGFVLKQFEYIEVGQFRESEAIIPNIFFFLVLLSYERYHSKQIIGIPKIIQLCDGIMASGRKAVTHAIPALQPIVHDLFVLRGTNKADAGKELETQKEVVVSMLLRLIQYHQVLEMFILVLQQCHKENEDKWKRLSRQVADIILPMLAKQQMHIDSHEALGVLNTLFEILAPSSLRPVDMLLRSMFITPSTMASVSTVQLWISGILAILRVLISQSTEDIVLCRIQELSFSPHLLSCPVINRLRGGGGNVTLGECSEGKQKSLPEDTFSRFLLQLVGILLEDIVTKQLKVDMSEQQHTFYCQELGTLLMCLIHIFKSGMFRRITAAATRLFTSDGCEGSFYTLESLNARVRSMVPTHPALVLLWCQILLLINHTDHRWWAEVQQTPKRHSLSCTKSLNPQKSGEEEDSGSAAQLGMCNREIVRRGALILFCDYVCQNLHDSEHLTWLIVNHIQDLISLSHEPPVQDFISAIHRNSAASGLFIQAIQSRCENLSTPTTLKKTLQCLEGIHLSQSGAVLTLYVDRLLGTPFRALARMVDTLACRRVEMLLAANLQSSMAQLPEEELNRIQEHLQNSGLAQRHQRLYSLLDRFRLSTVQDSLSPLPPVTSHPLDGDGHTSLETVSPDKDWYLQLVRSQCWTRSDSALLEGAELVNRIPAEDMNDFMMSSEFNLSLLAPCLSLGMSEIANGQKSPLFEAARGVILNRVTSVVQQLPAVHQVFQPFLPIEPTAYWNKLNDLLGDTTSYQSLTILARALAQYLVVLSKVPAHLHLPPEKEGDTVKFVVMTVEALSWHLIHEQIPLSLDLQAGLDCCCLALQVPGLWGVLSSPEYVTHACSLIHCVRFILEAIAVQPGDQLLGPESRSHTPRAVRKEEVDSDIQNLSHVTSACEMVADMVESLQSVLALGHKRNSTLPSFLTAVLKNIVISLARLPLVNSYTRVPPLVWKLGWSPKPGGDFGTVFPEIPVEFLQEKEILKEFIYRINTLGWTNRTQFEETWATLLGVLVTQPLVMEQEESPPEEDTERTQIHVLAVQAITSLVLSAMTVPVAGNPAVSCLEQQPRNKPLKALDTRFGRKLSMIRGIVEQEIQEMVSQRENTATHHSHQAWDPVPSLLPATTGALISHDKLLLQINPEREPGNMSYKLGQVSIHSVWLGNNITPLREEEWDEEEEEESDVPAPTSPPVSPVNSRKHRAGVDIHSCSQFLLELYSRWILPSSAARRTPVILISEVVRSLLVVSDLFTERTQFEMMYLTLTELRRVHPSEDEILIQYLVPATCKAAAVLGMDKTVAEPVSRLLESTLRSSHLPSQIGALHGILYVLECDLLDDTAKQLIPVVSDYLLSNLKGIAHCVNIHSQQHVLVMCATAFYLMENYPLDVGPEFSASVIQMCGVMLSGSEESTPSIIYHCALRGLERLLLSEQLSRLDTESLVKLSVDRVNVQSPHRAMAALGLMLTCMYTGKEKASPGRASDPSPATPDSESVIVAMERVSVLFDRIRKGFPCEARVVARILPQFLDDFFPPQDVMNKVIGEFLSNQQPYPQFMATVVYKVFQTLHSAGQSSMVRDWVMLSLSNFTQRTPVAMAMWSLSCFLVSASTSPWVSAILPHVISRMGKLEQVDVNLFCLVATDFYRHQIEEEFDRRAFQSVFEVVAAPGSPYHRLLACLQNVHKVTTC

COc1ccc(COc2ccc3c(c2)CN(c2ccc(=O)n(C)n2)C3=O)nc1 [[^3H]-Compound 1-6]
specific binding, AD patients (mHTT aggregates [1]; cortex brain sections from AD patients): 0.1±0.0 fmol/mg tissue | specific binding, HD donors (mHTT aggregates [1]; frontal cortical sections from HD donors): 0.8±0.2 fmol/mg tissue | specific binding, CTRL tissue (mHTT aggregates [1]; frontal cortical sections, healthy subjects (CTRL)): 0.0±0.0 fmol/mg tissue | specific HD binding at 0.3 nM radioligand (mHTT aggregates [1]; human HD brain sections, 0.3 nM radioligand): significant specific HD binding was detectable; also recorded: binds selectively to human HD brain sections | binding to healthy control or Alzheimer's disease brain sections (mHTT aggregates [1]; human post-mortem brain sections): little to no binding | binding density to juvenile HD brain (mHTT aggregates [1]; juvenile HD sample (one case) vs adult-onset HD brains): highest binding density | white matter binding (mHTT aggregates [1]; post-mortem human brain, white matter): ≤ 0.5 fmol/mg tissue | binding to WT brain sections (mHTT aggregates [2]; WT mouse brain sections, only detectable above LLoQ (0.5 fmol/mg tissue) at 3 nM and 10 nM): minor | Bmax (concentration of specific binding sites) (mHTT aggregates [2]; cortex, 12-month-old HOM zQ175): 448.6 fmol/mg tissue | Bmax (mHTT aggregates [2]; cortex, 12-month-old HOM zQ175, tritium-labeled radioligand): 448 fmol/mg
